Each block holds one molecule with its values, some of them ahead of it.
How the values were obtained:
Peroxiredoxin = Peroxiredoxin activity assay (NADPH oxidation coupled to H2O2 reduction); assay type: biochemical; settings: addition to liver cells (FIG. 3); assay method states 500 nM compound A
Experimental: An in vitro assay was developed to identify compounds that activated Peroxiredoxin (Peroxiredoxin inducers). In a 96-well plate, Peroxiredoxin (0.1 μg) was incubated with 5 μM of an unknown candidate compound and mixed with Hepes buffer containing NADPH, thioredoxin, thioredoxin reductase and hydrogen peroxide. When hydrogen peroxide was reduced by the activated Peroxiredoxin, the quantitative indicator, NADPH was converted to NADP. A decrease in NADPH was monitored by determining the absorption at […]. A decrease in NADPH was therefore, indicative of a Peroxiredoxin inducer.
Peroxiredoxin-mediated reduction of H2O2 was coupled to oxidation of NADPH oxidation. NADPH oxidation was monitored as a decrease in absorbance at 340 nm (A340). The control reaction contained 50 mM Hepes-NaOH (pH 7.0), 1 mM EDTA, 2 μM thioredoxin, 150 nM thioredoxin reductase, H2O2 (8.8 mM), NADPH ([…]), and Peroxiredoxin (1 μM). The treatment group in addition contained 500 nM of compound A. The reaction was incubated for 30 seconds to 10 minutes and the change in absorbance was monitored.

LDL-receptor null mice = assay: Hyperlipidemia model, LDL-receptor null mice on cholesterol diet; assay type: in vivo; settings: 100 mg/kg oral once a day, 15 days, plasma, vs vehicle
Experimental: First, 14 week old LDL-receptor null mice were fed with a diet containing 0.8% cholesterol, 0.1% cholic acid and 20% coconut oil and once a day orally dosed with carboxymethyl cellulose suspension alone Compound A at 100 mg/kg (in carboxymethyl cellulose suspension) for 15 days. At the end of the study, plasma levels of cholesterol and triglycerides were determined using an enzymatic method (INFINITY™ Sigma Diagnostics).

[1] = system: apolipoprotein E-null mice; assay: Hyperlipidemia model, apolipoprotein E-null mice; assay type: in vivo; settings: 100 mg/kg oral once a day, 14 days, plasma, vs vehicle
Experimental: Second, 8 week old apolipoprotein E-null mice were fed with normal chow diet and once a day orally dosed with carboxymethyl cellulose suspension alone or Compound A at 100 mg/kg (in carboxymethyl cellulose suspension) for 14 days. At the end of the study, plasma levels of cholesterol and triglycerides were determined.

[2] = system: Human Aortic Smooth Muscle cells; assay: Cellular peroxide levels (Amplex Red Kit); assay type: cell-based; settings: 3 uM compound, 30 min pre-incubation then 1 hour in growth media, cell lysates
Experimental: H2O2 levels in human aortic smooth muscle cells (Rockland, Me. Clonetics, catalog #CC-2535) were measured using Amplex Red Kit (Molecular Probes). Smooth muscle cells were cultured in Clonetics growth media containing 5% fetal bovine serum. Cells at 70 percent confluence were starved overnight in serum free media and incubated for further 30 min in serum free media alone (control) or medium containing […] compound A (treatment) for 30 minutes. Growth media containing serum was then added and incubated for one hour. The cells were then lysed and H2O2 was assayed in lysates using Amplex Red Kit (Molecular Probes).
To establish that compound mediated activation of Peroxiredoxin will result in decreased H2O2, H2O2 levels were measured in untreated (control) and compound A treated smooth muscle cells (See FIG. 16). Human Aortic Smooth Muscle cells at 70 percent confluence were starved overnight in basal media and incubated for further 30 min in basal medium alone (control) or medium containing 3 uM compound (treatment) for 30 minutes. Growth media was then added to the control sample and growth media plus compound was added to the treatment group and incubated for one hour. The cells were then lysed and H2O2 was assayed in lysates using Amplex Red Kit (Molecular Probes).

MCP-1 = MCP-1 ELISA in TNFα-induced endothelial cells; assay type: cell-based; settings: Homo sapiens, Endothelial cell, 0.5 ng/ml TNFα, overnight, read-out: inhibition of MCP-1 levels
Experimental: MCP-1 ELISA is carried out using Quantikine Human MCP-1 kit as described by manufacturer (R&D Systems, Minneapolis, Minn., Catalog #DY279E). Mouse anti-human MCP-1 was used as the capture antibody and HRP-conjugated goat anti-human MCP-1 (Zymed (now part of Invitrogen) catalog #81-1620, Carlsbad, Calif.) was used as the detection antibody. Culture media were incubated with capture antibody (in 96 well) for 2 hours at room temperature. Wells were washed three times with wash buffer (0.05% tween-20 in phosphate buffered saline (PBS) pH 7.4) followed by incubation with detection antibody for 2 hours at room temperature. Color development was read at 450 nm in a Microplate reader.
TNF-alpha (TNFα) (R&D Systems, Minneapolis, Minn., Catalogue No. 210-TA-010) is a pro-inflammatory cytokine implicated in the development of cardiovascular disease. Inflammatory markers produced in response to TNFα include monocyte chemoattractant protein—MCP-1, and vascular cell adhesion molecule—VCAM-1. […] To determine whether compound mediating the activation of Peroxiredoxin will result in decreased inflammation, MCP-1 and VCAM-1 levels were measured in TNFα-induced endothelial cells. […] After fixing the cells, VCAM-1 expression was detected with the primary and secondary antibodies. Colorimetric measurements with made with the Multiskan Ascent plate reader.

VCAM-1 = VCAM-1 ELISA in TNFα-induced endothelial cells; assay type: cell-based; settings: Homo sapiens, Endothelial cell, 0.5 ng/ml TNFα, overnight, read-out: inhibition of VCAM-1 levels
Experimental: Endothelial cell surface VCAM-1 was measured following compound A treatments. The cell layer was washed once with PBS and fixed with methanol. After fixing the cells, VCAM-1 expression was detected with the primary VCAM-1 antibody (goat-anti-Human VCAM-1 antibody—catalog# BBA19, R&D Systems) and secondary anti-goat antibody conjugated to horse radish peroxidase. Colorimetric measurements with made with the Multiskan Ascent plate reader.
TNF-alpha (TNFα) (R&D Systems, Minneapolis, Minn., Catalogue No. 210-TA-010) is a pro-inflammatory cytokine implicated in the development of cardiovascular disease. Inflammatory markers produced in response to TNFα include monocyte chemoattractant protein—MCP-1, and vascular cell adhesion molecule—VCAM-1. Endothelial cells are known to produce these markers in response TNFα. To determine whether compound mediating the activation of Peroxiredoxin will result in decreased inflammation, MCP-1 and VCAM-1 levels were measured in TNFα-induced endothelial cells. Cells were stimulated with 0.5 ng/ml of TNFα with or without compound A in basal media supplemented with 1% FBS. Each treatment condition was done in triplicate. […] After fixing the cells, VCAM-1 expression was detected with the primary and secondary antibodies. Colorimetric measurements with made with the Multiskan Ascent plate reader.

TNF-α = assay: LPS-induced acute inflammation in rats, serum TNF-α ELISA; assay type: in vivo, Sprague Dawley rats; settings: 60 mg/kg oral, LPS 1 mg/kg i.p., serum 1 hour after LPS
Experimental: The compound A was orally administrated (60 mg/kg) to female Sprague Dawley rats followed by intraperitoneal administration lipopolysaccharide (LPS−1 mg/kg). Blood samples were collected 1 hour after LPS administration. TNF-α level in the serum was analyzed by using ELISA.

HepG2 cells [3] = assay: Real time-PCR gene expression in HepG2 cells; assay type: cell-based, human
Experimental: HepG2 cells were prepared from the T-75 flasks and were used to seed the 24-well plates with 1.6×10^5 cells per well per 1 ml of growth media. The next day, the media was removed and 1 ml of low-serum growth media was added to each well for 24 hours. The following day, the low-serum media was removed. In selected experiments, cells were treated with 100 uM H2O2 or si-Peroxiredoxin I. Media was removed and cells were lysed with the lysis buffer from the Ambion RNAqueous kit and plate was placed on ice. RNA was extracted using the kit according to the protocol. The RNA was quantitated using a spectrophotometer and frozen at −80° C. The next day, the RNA was used for real-time PCR. The RNA was thawed and master mixes for each primer were prepared with the Stratagene Full Velocity SYBR Green QRT-PCR Master Mix. Master Mix with primer was added to the appropriate wells then RNA was added to appropriate wells. […]
HepG2 cells were grown in T-75 flasks prior to study. […] Total cholesterol and apoB levels were measured using an enzymatic assay. Percentage change was evaluated by comparing to both the baseline and the vehicle at the end of the study. […] RNA was isolated according to the manufacturer's protocol (Qiagen) and analyzed for changes in gene expression normalized to actin using RT-PCR. […]

HepG2 cells [4] = assay: Dil-LDL uptake assay in HepG2 cells; assay type: cell-based, human
Experimental: Glass cover slips were autoclaved and aseptically transferred to 6-well tissue culture plates in a tissue culture hood. HepG2 cells were prepared from the T-75 flasks and were used to seed the 6-well plates (containing sterile cover slips) with 7.5×10^5 cells per well per 1 ml of growth media. The following day, the media was removed and the wells were washed 3 times with 2 mL DMEM+10% DLCS very gently. After washes, 2 ml of DMEM+10% (DLCS) was added to the wells and treatments continued for 24 hours. In selected experiments, cells were treated with 100 uM H2O2, control IgG or perlecan antibodies. The next day, the media was not changed and Dil LDL and DAPI were added to wells for uptake (5 hours). After the uptake was completed, the wells were washed gently 3 times with PBS (2 mL/well/wash) and after last wash, cells were fixed with 1 mL of 4% formaldehyde in PBS for 20 minutes. Wells were washed 5 times with water in excess. Cover slips were then mounted to slides using clearmount. Slides were stored at −20° C. The slides were imaged using the Nikon microscope and ColdSNAP-Pro camera. […] Images were quantitated using Image Pro-Plus software. The intensity per area of the fluorescent label was quantitated using the software and was used to generate the figure which is LDL uptake per area as a percent of the control.

Stat1 = Stat1 activity assay (Stat1-luciferase reporter); assay type: cell-based, human; settings: HepG2 transfected with Stat1-luciferase
Experimental: HepG2 cells were prepared from the T-75 flasks and were used to seed the 24-well plates with 7.6×10^4 cells per well per 0.5 ml of DMEM+10% FBS. The next day, Stat1-lucuferase transfections were set up with Fugene6 according to the manufacturer's directions. In brief, transfection mixtures were prepared in DMEM in separate tubes from the reporter constructs also in DMEM. The samples incubated for 5 minutes at room temperature. Then, the constructs were mixed with the Fugene6 and incubated again for 30 minutes at room temperature. Then 50 μl transfection mix was added to each well in the existing media. Cells were allowed to incubate over night. In selected experiments, cells were treated with 100 uM H2O2 as well as with siPRDX1. After treatment, cells were lysed with the Promega lysis buffer. The wells were scraped and lysates were transferred into pre-chilled tubes and the lysates were cleared via centrifugation. 20 μl of cleared lysate was added to wells in 96 well clear plates and 100 μl of luciferase assay buffer was added to wells. Relative light units were counted using the PerkinElmer Envision.
HepG2 were transiently transfected with a Stat1-luciferase reporter construct and subject to treatment with either H2O2 or siPeroxiredoxin 1. Bars show the mean±SD. Asterisks indicate statistical difference from the Mock group with significance values of p<0.05. […]

[5] = in vivo; cited from earlier work

SMILES: COc1ccc(Nc2nc(NC3CCCCCC3)nc(N3CCC(OC(=O)CCC(=O)O)CC3)n2)cc1Cl [Compound A]
- increase in Peroxiredoxin activity over controls (Peroxiredoxin): 48%
- LDL cholesterol (LDL-receptor null mice): reduction
- VLDL cholesterol (LDL-receptor null mice): reduction
- total cholesterol (LDL-receptor null mice): reduction
- triglycerides (LDL-receptor null mice): reduction
- total triglycerides [1]: reduction
- decrease in H2O2 levels vs untreated control [2]: approximately 77%
- inhibition at 2.5 µM (MCP-1): 75%
- inhibition at 2.5 µM (VCAM-1): 75%
- inhibition of LPS-induced TNFα elevation (TNF-α): completely inhibited
- serum TNFα level (TNF-α): undetectable

- Stat1 driven luciferase expression (Stat1): significantly enhanced
SMILES: OO [Compound H2O2, hydrogen peroxide]
- LDLr mRNA levels (HepG2 cells [3]): did not have a significant effect
- perlecan expression levels (HepG2 cells [3]): significantly reduced
- LDL uptake by liver cells (HepG2 cells [4]): significantly decreased

SMILES: O=C1[C@H](CC[C@H](O)c2ccc(F)cc2)[C@@H](c2ccc(O)cc2)N1c1ccc(F)cc1 [Ezetimibe]
- cholesterol lowering [5]: 15-18%

— US20100297673A1, “METHODS AND COMPOSITIONS FOR UPREGULATION OF PEROXIREDOXIN ACTIVITY” (Reddy US Therapeutics, priority 2006, published 2010)
